# Assay results taken from patent publication US20200016136A1 (VIIV HEALTHCARE UK (NO. 5) LIMITED, priority 2017, published 2020).
# System: NL-RLuc virus (recombinant NL4-3 HIV with Renilla Luciferase gene)
# Test: Inhibition of HIV replication (NL-RLuc virus in MT-2 cells, luciferase readout)
# Assay type: cell-based, Human immunodeficiency virus (HIV)
# Settings: MT2, 120 h
# Procedure, shortened: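 MT-2 cells infected with NL4-3-derived virus carrying Renilla luciferase in place of part of nef, grown 5 days with serial compound dilutions in RPMI 1640/10% FBS. Virus growth read as luciferase expression. EC50 from median effect equation, at least 2 experiments.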
row,Structure (SMILES),EC50 [nM]
1,"Cc1nc(C)c([C@H](OC(C)(C)C)C(=O)O)c(N2CCC(C)(C)CC2)c1-c1ccc2c(c1)CCN(c1ccnc(N3CCS(=O)(=O)CC3)n1)C2 [Example 45, (S)-2-(tert-Butoxy)-2-(4-(4,4-dimethylpiperidin-1-yl)-5-(2-(2-(1,1-dioxidothiomorpholino)pyrimidin-4-yl)-1,2,3,4-tetrahydroisoquinolin-6-yl)-2,6-dimethylpyridin-3-yl)acetic Acid]",8
2,"Cc1nc(CN2CCC3(CCC3)CC2)c(-c2ccc3c(c2)CCN(c2ncnc4c2oc2ccccc24)C3)c(N2CCC(C)(C)CC2)c1[C@H](OC(C)(C)C)C(=O)O [Example 159, (S)-2-(6-(7-Azaspiro[3.5]nonan-7-ylmethyl)-5-(2-(benzofuro[3,2-d]pyrimidin-4-yl)-1,2,3,4-tetrahydroisoquinolin-6-yl)-4-(4,4-dimethylpiperidin-1-yl)-2-methylpyridin-3-yl)-2-(tert-butoxy)acetic Acid]",1
3,"Cc1cc(N2CCOCC2)nc(N2CCc3cc(-c4c(C)nc(C)c([C@H](OC(C)(C)C)C(=O)O)c4N4CCC(C)(C)CC4)ccc3C2)n1 [Example 37, (2S)-2-(tert-Butoxy)-2-[4-(4,4-dimethylpiperidin-1-yl)-2,6-dimethyl-5-{2-[4-methyl-6-(morpholin-4-yl)pyrimidin-2-yl]-1,2,3,4-tetrahydroisoquinolin-6-yl}pyridin-3-yl]acetic Acid]",1
4,"Cc1nc(C)c([C@H](OC(C)(C)C)C(=O)O)c(N2CCC(C)(C)CC2)c1-c1ccc2c(c1)CCN(c1nc(Cl)nc(N3CCOCC3)n1)C2 [Example 58, (S)-2-(tert-Butoxy)-2-(5-(2-(4-chloro-6-morpholino-1,3,5-triazin-2-yl)-1,2,3,4-tetrahydroisoquinolin-6-yl)-4-(4,4-dimethylpiperidin-1-yl)-2,6-dimethylpyridin-3-yl)acetic Acid]",8
5,"Cc1nc(C)c([C@H](OC(C)(C)C)C(=O)O)c(N2CCC(C)(C)CC2)c1-c1ccc2c(c1)CCN(c1ncc(F)cc1F)C2 [Example 72, (S)-2-(tert-Butoxy)-2-(5-(2-(3,5-difluoropyridin-2-yl)-1,2,3,4-tetrahydroisoquinolin-6-yl)-4-(4,4-dimethylpiperidin-1-yl)-2,6-dimethylpyridin-3-yl)acetic Acid]",8
6,"Cc1cccc(Cl)c1CN1CCc2cc(-c3c(CNCCCCc4ccccc4)nc(C)c([C@H](OC(C)(C)C)C(=O)O)c3N3CCC(C)(C)CC3)ccc2C1 [Example 155, (S)-2-(tert-Butoxy)-2-(5-(2-(2-chloro-6-methylbenzyl)-1,2,3,4-tetrahydroisoquinolin-6-yl)-4-(4,4-dimethylpiperidin-1-yl)-2-methyl-6-(((4-phenylbutyl)amino)methyl)pyridin-3-yl)acetic Acid]",55
7,"CC1(C)CCN(c2c(-c3ccc4c(c3)CCN(c3nccc(N5CCOCC5)n3)C4)cnc(Cl)c2[C@H](OC(C)(C)C)C(=O)O)CC1 [Example 148, (S)-2-(tert-Butoxy)-2-(2-chloro-4-(4,4-dimethylpiperidin-1-yl)-5-(2-(4-morpholinopyrimidin-2-yl)-1,2,3,4-tetrahydroisoquinolin-6-yl)pyridin-3-yl)acetic Acid]",0.2
8,"Cc1cn(-c2cc(N3CCc4cc(-c5c(C)nc(C)c([C@H](OC(C)(C)C)C(=O)O)c5N5CCC(C)(C)CC5)ccc4C3)ncn2)cn1 [Example 132, (S)-2-(tert-Butoxy)-2-(4-(4,4-dimethylpiperidin-1-yl)-2,6-dimethyl-5-(2-(6-(4-methyl-1H-imidazol-1-yl)pyrimidin-4-yl)-1,2,3,4-tetrahydroisoquinolin-6-yl)pyridin-3-yl)acetic Acid]",2
9,"CCC(C)(C)O[C@H](C(=O)O)c1c(C)nc(C)c(-c2ccc3c(c2)CCN(c2ncnc4c2oc2ccccc24)C3)c1N1CCC(C)(C)CC1 [Example 141, (S)-2-(5-(2-(Benzofuro[3,2-d]pyrimidin-4-yl)-1,2,3,4-tetrahydroisoquinolin-6-yl)-4-(4,4-dimethylpiperidin-1-yl)-2,6-dimethylpyridin-3-yl)-2-(tert-pentyloxy)acetic Acid]",2
10,"Cc1nc(C)c([C@H](OC(C)(C)C)C(=O)O)c(N2CCC(C)(C)CC2)c1-c1ccc2c(c1)CCN(c1ccnc(N3C4CCCC3COC4)n1)C2 [Example 36, (2S)-2-(tert-Butoxy)-2-[4-(4,4-dimethylpiperidin-1-yl)-2,6-dimethyl-5-[2-(2-{3-oxa-9-azabicyclo[3.3.1]nonan-9-yl}pyrimidin-4-yl)-1,2,3,4-tetrahydroisoquinolin-6-yl]pyridin-3-yl]acetic Acid]",3
11,"Cc1nc(C)c([C@H](OC(C)(C)C)C(=O)O)c(N2CCC(C)(C)CC2)c1-c1ccc2c(c1)CCN(c1ccnc(N3C[C@@H](C)O[C@@H](C)C3)n1)C2 [Example 27, (2S)-2-(tert-Butoxy)-2-[5-(2-{2-[(2R,6S)-2,6-dimethylmorpholin-4-yl]pyrimidin-4-yl}-1,2,3,4-tetrahydroisoquinolin-6-yl)-4-(4,4-dimethylpiperidin-1-yl)-2,6-dimethylpyridin-3-yl]acetic Acid]",2
12,"CCC(C)(C)O[C@H](C(=O)O)c1c(C)ncc(-c2ccc3c(c2)CCN(Cc2ccc(F)cc2C)C3)c1N1CCC(C)(C)CC1 [Example 54, (2S)-2-[4-(4,4-Dimethylpiperidin-1-yl)-5-{2-[(4-fluoro-2-methylphenyl)methyl]-1,2,3,4-tetrahydroisoquinolin-6-yl}-2-methylpyridin-3-yl]-2-[(2-methylbutan-2-yl)oxy]acetic Acid]",12
13,"Cc1cc(F)ccc1CN1CCc2cc(-c3cnc(C)c([C@H](OC(C)(C)C)C(=O)O)c3N3CCC(C)(C)CC3)ccc2C1 [Example 51, (2S)-2-(tert-Butoxy)-2-[4-(4,4-dimethylpiperidin-1-yl)-5-{2-[(4-fluoro-2-methylphenyl)methyl]-1,2,3,4-tetrahydroisoquinolin-6-yl}-2-methylpyridin-3-yl]acetic Acid]",4
14,"Cc1nc(CO)c(-c2ccc3c(c2)CCN(c2nccc(-c4cccnc4)n2)C3)c(N2CCC(C)(C)CC2)c1[C@H](OC(C)(C)C)C(=O)O [Example 164, (S)-2-(tert-Butoxy)-2-(4-(4,4-dimethylpiperidin-1-yl)-6-(hydroxymethyl)-2-methyl-5-(2-(4-(pyridin-3-yl)pyrimidin-2-yl)-1,2,3,4-tetrahydroisoquinolin-6-yl)pyridin-3-yl)acetic Acid]",2
15,"Cc1nc(C)c([C@H](OC(C)(C)C)C(=O)O)c(N2CCC(C)(C)CC2)c1-c1ccc2c(c1)CCN(c1nccc(N3CCC(C)(C)CC3)n1)C2 [Example 24, (2S)-2-(tert-Butoxy)-2-[4-(4,4-dimethylpiperidin-1-yl)-5-{2-[4-(4,4-dimethylpiperidin-1-yl)pyrimidin-2-yl}-1,2,3,4-tetrahydroisoquinolin-6-yl}-2,6-dimethylpyridin-3-yl]acetic Acid]",8
16,"Cc1nc(C)c([C@H](OC(C)(C)C)C(=O)O)c(N2CCC(C)(C)CC2)c1-c1ccc2c(c1)CCN(c1ncnc(N3CCC(CO)CC3)n1)C2 [Example 62, (S)-2-(tert-Butoxy)-2-(4-(4,4-dimethylpiperidin-1-yl)-5-(2-(4-(4-(hydroxymethyl)piperidin-1-yl)-1,3,5-triazin-2-yl)-1,2,3,4-tetrahydroisoquinolin-6-yl)-2,6-dimethylpyridin-3-yl)acetic Acid]",3
